Where two headings read alike, the source gives them in different places.
How the values were obtained:
[1] = test system: HORSS: barley, including spring and winter (Hordeum vulgare); experiment: Post-emergent Test III, herbicidal activity in wheat and barley; assay type: in vivo; conditions: for pest or weed control at 35 g/ha / pest or weed control at 70 g/ha: Hordeum vulgare, post-emergence, 504 h; for pest or weed control at 35 g/ha: 35 g ai/ha; for pest or weed control at 70 g/ha: 70 g ai/ha; for GR20 HORSS: probit analysis
Outline: (§1)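 GR20, GR50, GR80 and GR90 come from probit analysis of visual injury scores (0 = none, 100 = complete kill) taken 21 d after treatment. Foliar application was by track sprayer delivering 187 L/ha at five rates, from high down to 1/16×, onto greenhouse plants at the 2–3 leaf stage, with solvent-blank controls.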

[2] = test system: KCHSC: kochia (Kochia scoparia); experiment: as above; assay type: in vivo; conditions: for pest or weed control at 35 g/ha / pest or weed control at 70 g/ha: Bassia scoparia, post-emergence, 504 h; for pest or weed control at 35 g/ha: 35 g ai/ha; for pest or weed control at 70 g/ha: 70 g ai/ha; for GR50 KCHSC / GR80 KCHSC: probit analysis
Outline: as §1

[3] = test system: MATSS: scented mayweed (Matricaria chamomilla), pineappleweed (Matricaria matricarioides); experiment: as above; assay type: in vivo; conditions: for pest or weed control at 35 g/ha / pest or weed control at 70 g/ha: Matricaria chamomilla, post-emergence, 504 h; for pest or weed control at 35 g/ha: 35 g ai/ha; for pest or weed control at 70 g/ha: 70 g ai/ha; for GR50 MATSS / GR80 MATSS: probit analysis
Outline: as §1

[4] = test system: TRZSS: wheat, including spring and winter (Triticum aestivum); experiment: as above; assay type: in vivo; conditions: for pest or weed control at 35 g/ha / pest or weed control at 70 g/ha: Triticum aestivum, post-emergence, 504 h; for pest or weed control at 35 g/ha: 35 g ai/ha; for pest or weed control at 70 g/ha: 70 g ai/ha; for GR20 TRZSS: probit analysis
Outline: as §1

[5] = test system: VERPE: bird's-eye speedwell (veronica persica); experiment: as above; assay type: in vivo; conditions: 21 days after application
Outline: as §1

[6] = as above; assay type: in vivo, Lolium multiflorum, Lolium rigidum; conditions: Lolium multiflorum, post-emergence, 504 h, read-out: Visual Growth Reduction (%) 21 Days After Application LOLSS; for pest or weed control at 35 g/ha: 35 g ai/ha; for pest or weed control at 70 g/ha: 70 g ai/ha
Outline: as §1

[7] = test system: APESV: bentgrass (Apera spica-venti); experiment: as above; assay type: in vivo; conditions: for pest or weed control at 35 g/ha / pest or weed control at 70 g/ha: Apera spica-venti, post-emergence, 504 h, read-out: Visual Growth Reduction (%) 21 Days After Application APESV; for pest or weed control at 35 g/ha: 35 g ai/ha; for pest or weed control at 70 g/ha: 70 g ai/ha; for GR50 APESV / GR80 APESV: probit analysis
Outline: as §1

[8] = test system: LOLSS: ryegrass including, Italian ryegrass (Lolium multiflorum), rigid ryegrass (Lolium rigidum), annual ryegrass (Lolium multiflorum subsp. Gaudini); experiment: as above; assay type: in vivo; conditions: probit analysis
Outline: as §1

[9] = test system: SETVI: green foxtail (Setaria viridis); experiment: as above; assay type: in vivo; conditions: Table 9, 21 d; for pest or weed control at 35 g/ha / pest or weed control at 70 g/ha: Setaria viridis, post-emergence, 504 h, post-emergent, read-out: Visual Growth Reduction (%) 21 Days After Application SETVI; for pest or weed control at 35 g/ha: 35 g ai/ha; for pest or weed control at 70 g/ha: 70 g ai/ha; for GR50 SETVI: dose for 50 percent growth reduction; for GR50 SETVI / GR80 SETVI: probit analysis; for GR80 SETVI: dose for 80 percent growth reduction
Outline: as §1

[10] = test system: BROTE: downy brome (Bromus tectorum); experiment: as above; assay type: in vivo
Outline: as §1

[11] = 21 days after application, read-out: Visual Gorowth Reduction (%) 21 days After Application HORSS
[12] = dose for 20 percent growth reduction (crop), 21 days after application
[13] = 21 days after application, read-out: Visual Gorowth Reduction (%) 21 days After Application KCHSC
[14] = dose for 50 percent growth reduction, 21 days after application
[15] = dose for 80 percent growth reduction, 21 days after application
[16] = 21 days after application, read-out: Visual Gorowth Reduction (%) 21 days After Application MATSS
[17] = 21 days after application, read-out: Visual Gorowth Reduction (%) 21 days After Application TRZSS
[18] = Table 9, dose for 50 percent growth reduction, 21 d
[19] = Table 9, dose for 80 percent growth reduction, 21 d
[20] = Table 9, post-emergent, 21 d, read-out: Visual Growth Reduction (%) 21 Days After Application HORSS
[21] = Table 9, dose for 20 percent growth reduction, 21 d
[22] = Table 9, post-emergent, 21 d, read-out: Visual Growth Reduction (%) 21 Days After Application KCHSC
[23] = Table 9, post-emergent, 21 d, read-out: Visual Growth Reduction (%) 21 Days After Application TRZSS
[24] = dose for growth reduction of 50 percent, 21 days after application
[25] = dose for growth reduction of 80 percent, 21 days after application
[26] = read-out: Visual Growth Reduction (%) 21 Days After Application KCHSC
[27] = read-out: Visual Growth Reduction (%) 21 Days After Application MATSS

Q: Which results are given for `COC(=O)c1nc(-c2ccc(Br)c(F)c2)c(F)c(N)c1Cl` [Compound 49]?
A: pest or weed control at 35 g/ha [1, 11]: 75 to 84%; pest or weed control at 70 g/ha [1, 11]: 85 to 94%; GR20 HORSS [1, 12]: 1 g ai/ha; pest or weed control at 35 g/ha [2, 13]: 85 to 94%; pest or weed control at 70 g/ha [2, 13]: 85 to 94%; GR50 KCHSC [2, 14]: 4 g ai/ha; GR80 KCHSC [2, 15]: 18 g ai/ha; pest or weed control at 35 g/ha [3, 16]: 60 to 74%; pest or weed control at 70 g/ha [3, 16]: 75 to 84%; GR50 MATSS [3, 14]: 15 g ai/ha; GR80 MATSS [3, 15]: 93 g ai/ha; pest or weed control at 35 g/ha [4, 17]: 75 to 84%; pest or weed control at 70 g/ha [4, 17]: 85 to 94%; GR20 TRZSS [4, 12]: 1 g ai/ha; pest or weed control at 35 g/ha ([5]; Veronica persica, post-emergence, 504 h, 35 g ai/ha, read-out: Visual Gorowth Reduction (%) 21 days After Application VERPE): 45 to 59%; pest or weed control at 70 g/ha ([5]; Veronica persica, post-emergence, 504 h, 70 g ai/ha, read-out: Visual Gorowth Reduction (%) 21 days After Application VERPE): 60 to 74%; GR50 VERPE ([5]; probit analysis, dose for 50 percent growth reduction): 37 g ai/ha; GR80 VERPE ([5]; probit analysis, dose for 80 percent growth reduction): >140 g ai/ha

Q: Which pest or weed control at 35 g/ha ([6]; Table 9, post-emergent, 21 d) does the source give for `COc1c(N)nc(-c2ccc(C(F)(F)F)c(F)c2F)nc1C(=O)O` [Compound 76] here?
A: 30 to 44%

Q: And the pest or weed control at 70 g/ha ([6]; Table 9, post-emergent, 21 d)?
A: 45 to 59%

Q: What about the pest or weed control at 35 g/ha ([7]; Table 9, post-emergent, 21 d) of the same compound?
A: 75 to 84%

Q: And the pest or weed control at 70 g/ha ([7]; Table 9, post-emergent, 21 d)?
A: 85 to 94%

Q: What about the “GR50 APESV” value [7, 18] of the same compound?
A: 27 g ai/ha

Q: What about the “GR80 APESV” value [7, 19] of the same compound?
A: 52 g ai/ha

Q: And the pest or weed control at 35 g/ha [1, 20]?
A: 60 to 74%

Q: What about the pest or weed control at 70 g/ha [1, 20] of the same compound?
A: 60 to 74%

Q: And the “GR20 HORSS” value [1, 21]?
A: 6 g ai/ha

Q: And the pest or weed control at 35 g/ha [2, 22]?
A: 0 to 29%

Q: And the pest or weed control at 70 g/ha [2, 22]?
A: 45 to 59%

Q: And the “GR50 KCHSC” value [2, 18]?
A: 74 g ai/ha

Q: And the “GR80 KCHSC” value [2, 19]?
A: 132 g ai/ha

Q: What about the “GR50 LOLSS” value [8, 18] of the same compound?
A: 53 g ai/ha

Q: What about the “GR80 LOLSS” value [8, 19] of the same compound?
A: 133 g ai/ha

Q: And the pest or weed control at 35 g/ha [9]?
A: 45 to 59%

Q: And the pest or weed control at 70 g/ha [9]?
A: 60 to 74%

Q: And the “GR50 SETVI” value [9]?
A: 42 g ai/ha

Q: And the “GR80 SETVI” value [9]?
A: 87 g ai/ha

Q: What about the “GR20 TRZSS” value [4, 21] of the same compound?
A: 4 g ai/ha

Q: And the pest or weed control at 35 g/ha [4, 23]?
A: 75 to 84%

Q: And the pest or weed control at 70 g/ha [4, 23]?
A: 85 to 94%

Q: With `Nc1c(F)c(-c2ccc(C(F)(F)F)c(F)c2F)nc(C(=O)O)c1Cl` [Compound 167] as the compound, how does the pest or weed control at 35 g/ha [6] read?
A: 0 to 29%

Q: And the pest or weed control at 70 g/ha [6]?
A: 0 to 29%

Q: What about the pest or weed control at 35 g/ha [7] of the same compound?
A: 75 to 84%

Q: And the pest or weed control at 70 g/ha [7]?
A: 85 to 94%

Q: And the “GR50 APESV” value [7, 24]?
A: 20 g ai/ha

Q: What about the “GR80 APESV” value [7, 25] of the same compound?
A: 46 g ai/ha

Q: What about the pest or weed control at 35 g/ha ([10]; Bromus tectorum, post-emergence, 504 h, 35 g ai/ha, read-out: Visual Growth Reduction (%) 21 Days After Application BROTE) of the same compound?
A: 30 to 44%

Q: What about the pest or weed control at 70 g/ha ([10]; Bromus tectorum, post-emergence, 504 h, 70 g ai/ha, read-out: Visual Growth Reduction (%) 21 Days After Application BROTE) of the same compound?
A: 75 to 84%

Q: And the “GR50 BROTE” value ([10]; probit analysis, dose for growth reduction of 50 percent, 21 days after application)?
A: 43 g ai/ha

Q: What about the “GR80 BROTE” value ([10]; probit analysis, dose for growth reduction of 80 percent, 21 days after application) of the same compound?
A: 81 g ai/ha

Q: What about the pest or weed control at 35 g/ha [2, 26] of the same compound?
A: 60 to 74%

Q: And the pest or weed control at 70 g/ha [2, 26]?
A: 75 to 84%

Q: And the “GR50 KCHSC” value [2, 24]?
A: 23 g ai/ha

Q: And the “GR80 KCHSC” value [2, 25]?
A: 52 g ai/ha

Q: What about the “GR50 LOLSS” value [8, 24] of the same compound?
A: >140 g ai/ha

Q: What about the “GR80 LOLSS” value [8, 25] of the same compound?
A: >140 g ai/ha

Q: What about the pest or weed control at 35 g/ha [3, 27] of the same compound?
A: 75 to 84%

Q: What about the pest or weed control at 70 g/ha [3, 27] of the same compound?
A: 85 to 94%

Q: And the “GR50 MATSS” value [3, 24]?
A: 24 g ai/ha

Q: And the “GR80 MATSS” value [3, 25]?
A: 48 g ai/ha

Q: What does the source list for `Nc1cc(-c2ccc(C(F)(F)F)c(F)c2F)nc(C(=O)O)c1Cl` [Compound 172, 4-amino-3-chloro-6-(2,3-difluoro-4-(trifluoromethyl)phenyl)picolinic acid]?
A: pest or weed control at 35 g/ha ([6]; Table 9, post-emergent, 21 d): 0 to 29%; pest or weed control at 70 g/ha ([6]; Table 9, post-emergent, 21 d): 0 to 29%; pest or weed control at 35 g/ha ([7]; Table 9, post-emergent, 21 d): 30 to 44%; pest or weed control at 70 g/ha ([7]; Table 9, post-emergent, 21 d): 60 to 74%; GR50 APESV [7, 18]: 53 g ai/ha; GR80 APESV [7, 19]: 124 g ai/ha; pest or weed control at 35 g/ha [1, 20]: 60 to 74%; pest or weed control at 70 g/ha [1, 20]: 60 to 74%; GR20 HORSS [1, 21]: 3 g ai/ha; pest or weed control at 35 g/ha [2, 22]: 60 to 74%; pest or weed control at 70 g/ha [2, 22]: 60 to 74%; GR50 KCHSC [2, 18]: 38 g ai/ha; GR80 KCHSC [2, 19]: 73 g ai/ha; GR50 LOLSS [8, 18]: >140 g ai/ha; GR80 LOLSS [8, 19]: >140 g ai/ha; pest or weed control at 35 g/ha [9]: 60 to 74%; pest or weed control at 70 g/ha [9]: 75 to 84%; GR50 SETVI [9]: 25 g ai/ha; GR80 SETVI [9]: 56 g ai/ha; GR20 TRZSS [4, 21]: 1 g ai/ha; pest or weed control at 35 g/ha [4, 23]: 75 to 84%; pest or weed control at 70 g/ha [4, 23]: 75 to 84%
